# Assay results published in PMC5285354, “Cationic Net Charge and Counter Ion Type as Antimicrobial Activity Determinant Factors of Short Lipopeptides” (Frontiers in Microbiology, 2017).
# Read-outs that look alike come from different tables or passages of the source. Where a SMILES comes first, the peptide text is derived from it. The star is where a group is joined. Decanoyl = CCCCCCCCCC(=O)*; Octanoyl = CCCCCCCC(=O)*
# Assays:
# Format in all cases: cell-based
# [1] = test system: Staphylococcus epidermidis (PCM 2118)
# Method: (§1) The minimum inhibitory concentration (MIC), minimum bactericidal concentration (MBC) and minimum fungicidal concentration (MFC) were determined according to the procedure recommended by the Clinical Laboratory Standards Institute (CLSI). The following reference strains were tested: Gram-negative E. coli (ATCC 25922), K. pneumoniae (ATCC 700603), P. vulgaris (PCM 2668), P. aeruginosa (ATCC 9027), Gram-positive S. aureus (ATCC 25923), S. epidermidis (PCM 2118), B. subtilis (ATCC 6633), E. faecalis (ATCC 29212) and fungi C. albicans (ATCC 10231), C. tropicalis (PCM 2681), and A. brasiliensis (ATCC 16404). All the microorganisms were from the Polish Collection of Microorganisms (Wroclaw, Poland). MIC was determined using a microbroth dilution method with Mueller-Hinton (MH) broth for bacteria and Sabouraud Dextrose broth for fungi (Becton Dickinson, Le Pont de Claix, France). An initial inoculum of 10^5 cfu/mL was used for bacteria and 10^3 cfu/mL for fungi. Polypropylene 96-well plates (Kartell, Noviglio, Italy) were incubated for 18 h at 37°C for bacteria and for 48 h at 25°C for the tested fungi. MIC (μg/mL) was taken as the lowest concentration of the lipopeptide, at which the observable growth was inhibited. […] The experiments were performed in triplicate on three different days.
# [2] = test system: Proteus vulgaris (PCM 2668); conditions: PCM 2668, TFA salt, triplicate; for MIC Proteus vulgaris: Mueller-Hinton broth, 10^5 cfu/mL, 18 h 37°C; for MBC Proteus vulgaris: subculture on Mueller-Hinton II Agar, 24 h 37°C
# Method: as §1
# [3] = test system: Candida tropicalis (PCM 2681); conditions: PCM 2681, 48 h
# Method: as §1
# [4] = test system: Klebsiella pneumoniae (ATCC 700603)
# Method: as §1
# [5] = test system: Enterococcus faecalis (ATCC 29212); conditions: for MBC Enterococcus fecalis: subculture on Mueller-Hinton II Agar, 24 h 37°C
# Method: as §1
# [6] = test system: Aspergillus brasiliensis (ATCC 16404); conditions: ATCC 16404, 48 h
# Method: as §1
# [7] = test system: Pseudomonas aeruginosa (ATCC 9027); conditions: for MBC Pseudomonas aeruginosa: subculture on Mueller-Hinton II Agar, 24 h 37°C
# Method: as §1
# [8] = test system: Escherichia coli (ATCC 25922)
# Method: as §1
# [9] = test system: Candida albicans (ATCC 10231)
# Method: as §1
# [10] = test system: Bacillus subtilis (ATCC 6633)
# Method: as §1
# [11] = test system: Staphylococcus aureus (ATCC 25923); conditions: for MBC Staphylococcus aureus: MIC wells subcultured on Mueller-Hinton II Agar, 24 h 37°C, triplicate
# Method: as §1
# [12] = test system: Pseudomonas aeruginosa (ATCC 9027); conditions: ATCC 9027, 24 h
# [13] = ATCC 700603, TFA salt, Mueller-Hinton broth, 10^5 cfu/mL, 18 h 37°C, triplicate
# [14] = ATCC 700603, TFA salt, subculture on Mueller-Hinton II Agar, 24 h 37°C, triplicate
# [15] = ATCC 29212, TFA salt, triplicate
# [16] = ATCC 9027, TFA salt, Mueller-Hinton broth, 10^5 cfu/mL, 18 h 37°C, triplicate
# [17] = ATCC 9027, TFA salt, triplicate
# [18] = ATCC 25922, TFA salt, Mueller-Hinton broth, 10^5 cfu/mL, 18 h 37°C, triplicate
# [19] = ATCC 25922, TFA salt, subculture on Mueller-Hinton II Agar, 24 h 37°C, triplicate
# [20] = ATCC 25923, TFA salt, Mueller-Hinton broth, 10^5 cfu/mL, 18 h 37°C, triplicate on three days
# [21] = ATCC 29212, TFA salt, Mueller-Hinton broth, 10^5 cfu/mL, 18 h 37°C, triplicate
MIC Proteus vulgaris [2],MIC Candida tropicalis [3],"MIC Klebsiella pneumoniae [4, 13]",MIC Aspergillus brasiliensis [6],"MIC Escherichia coli [8, 18]","MIC Candida albicans ([9]; ATCC 10231, 48 h)","MIC Staphylococcus aureus [11, 20]","MIC Staphylococcus epidermidis ([1]; PCM 2118, 18 h)","MIC Enterococcus fecalis [5, 21]","MIC Bacillus subtillis ([10]; ATCC 6633, 18 h)",SMILES,MBC Proteus vulgaris [2],MFC Candida tropicalis [3],"MBC Klebsiella pneumoniae [4, 14]","MBC Enterococcus fecalis [5, 15]",MFC Aspergillus brasiliensis [6],"MBC Escherichia coli [8, 19]","MFC Candida albicans ([9]; ATCC 10231, 48 h)","MBC Staphylococcus aureus ([11]; ATCC 25923, TFA salt)","MBC Staphylococcus epidermidis ([1]; PCM 2118, 24 h)","MBC Bacillus subtillis ([10]; ATCC 6633, 24 h)",further results
>2000 µg/mL,2000 µg/mL,>2000 µg/mL,2000 µg/mL,>1000 µg/mL,2000 µg/mL,>2000 µg/mL,,,,CCCCCCCC(=O)N[C@@H](CCCCN)C(=O)N[C@@H](CCCCN)C(=O)N[C@@H](CCCCN)C(=O)N[C@@H](CCCCN)C(N)=O [C8-KKKK-NH2] (Octanoyl-KKKK-NH2),>2000 µg/mL,2000 µg/mL,>2000 µg/mL,>2000 µg/mL,2000 µg/mL,>1000 µg/mL,2000 µg/mL,>2000 µg/mL,,,"MIC Staphylococcus epidermidis ([1]; PCM 2118, TFA salt, Mueller-Hinton broth, 10^5 cfu/mL, 18 h 37°C, triplicate): >2000 µg/mL; MBC Staphylococcus epidermidis ([1]; PCM 2118, TFA salt, subculture on Mueller-Hinton II Agar, 24 h 37°C, triplicate): >2000 µg/mL; MIC Enterococcus fecalis ([5]; ATCC 29212, 18 h): 2000 µg/mL; MIC Pseudomonas aeruginosa [7, 16]: >2000 µg/mL; MBC Pseudomonas aeruginosa [7, 17]: >2000 µg/mL; MIC Bacillus subtillis ([10]; ATCC 6633, TFA salt, Mueller-Hinton broth, 10^5 cfu/mL, 18 h 37°C, triplicate): >2000 µg/mL; MBC Bacillus subtillis ([10]; ATCC 6633, TFA salt, subculture on Mueller-Hinton II Agar, 24 h 37°C, triplicate): >2000 µg/mL"
>2000 µg/mL,1000 µg/mL,,512 µg/mL,,1000 µg/mL,,1000 µg/mL,>2000 µg/mL,1000 µg/mL,CCCCCCCCCC(=O)N[C@@H](CCCCN)C(N)=O [C10-K-NH2],>2000 µg/mL,2000 µg/mL,,>2000 µg/mL,1000 µg/mL,,2000 µg/mL,>1000 µg/mL,1000 µg/mL,1000 µg/mL,"MBC Pseudomonas aeruginosa [12]: 1000 µg/mL; MIC Klebsiella pneumoniae ([4]; ATCC 700603, 18 h): 1000 µg/mL; MBC Klebsiella pneumoniae ([4]; ATCC 700603, 24 h): 1000 µg/mL; MIC Pseudomonas aeruginosa ([7]; ATCC 9027, 18 h): 512 µg/mL; MIC Escherichia coli ([8]; ATCC 25922, 18 h): 1000 µg/mL; MBC Escherichia coli ([8]; ATCC 25922, 24 h): 1000 µg/mL; MIC Staphylococcus aureus ([11]; ATCC 25923, 18 h): 1000 µg/mL"
>2000 µg/mL,1000 µg/mL,,1000 µg/mL,>2000 µg/mL,1000 µg/mL,>2000 µg/mL,512 µg/mL,,512 µg/mL,CCCCCCCCCC(=O)N[C@@H](CCCCN)C(=O)NCC(N)=O [C10-KG-NH2] (Decanoyl-Lys-Gly-NH2),>2000 µg/mL,2000 µg/mL,,>1000 µg/mL,2000 µg/mL,>2000 µg/mL,2000 µg/mL,>2000 µg/mL,1000 µg/mL,512 µg/mL,"MBC Pseudomonas aeruginosa [12]: 2000 µg/mL; MIC Klebsiella pneumoniae ([4]; ATCC 700603, 18 h): 1000 µg/mL; MBC Klebsiella pneumoniae ([4]; ATCC 700603, 24 h): 2000 µg/mL; MIC Enterococcus fecalis ([5]; ATCC 29212, 18 h): 1000 µg/mL; MIC Pseudomonas aeruginosa ([7]; ATCC 9027, 18 h): 1000 µg/mL"
>2000 µg/mL,512 µg/mL,>2000 µg/mL,1000 µg/mL,>2000 µg/mL,1000 µg/mL,>2000 µg/mL,512 µg/mL,>2000 µg/mL,512 µg/mL,CCCCCCCCCC(=O)N[C@@H](CCCCN)C(=O)NCC(=O)N[C@@H](CCCCN)C(N)=O [C10-KGK-NH2] (Decanoyl-Lys-Gly-Lys-NH2),>2000 µg/mL,1000 µg/mL,>2000 µg/mL,>2000 µg/mL,1000 µg/mL,>2000 µg/mL,1000 µg/mL,>2000 µg/mL,512 µg/mL,1000 µg/mL,"MBC Pseudomonas aeruginosa [12]: 2000 µg/mL; MIC Pseudomonas aeruginosa ([7]; ATCC 9027, 18 h): 2000 µg/mL"
>2000 µg/mL,2000 µg/mL,>2000 µg/mL,1000 µg/mL,>2000 µg/mL,2000 µg/mL,>2000 µg/mL,128 µg/mL,>2000 µg/mL,128 µg/mL,CCCCCCCCCC(=O)N[C@@H](CCCCN)C(=O)N[C@@H](CCCCN)C(=O)N[C@@H](CCCCN)C(N)=O [C10-KKK-NH2],>2000 µg/mL,2000 µg/mL,>2000 µg/mL,>2000 µg/mL,2000 µg/mL,>2000 µg/mL,2000 µg/mL,>2000 µg/mL,256 µg/mL,256 µg/mL,"MIC Pseudomonas aeruginosa [7, 16]: >2000 µg/mL; MBC Pseudomonas aeruginosa [7, 17]: >2000 µg/mL"
>2000 µg/mL,2000 µg/mL,>2000 µg/mL,2000 µg/mL,>2000 µg/mL,,>2000 µg/mL,64 µg/mL,>2000 µg/mL,128 µg/mL,CCCCCCCCCC(=O)N[C@@H](CCCCN)C(=O)N[C@@H](CCCCN)C(=O)N[C@@H](CCCCN)C(=O)N[C@@H](CCCCN)C(N)=O [C10-KKKK-NH2] (Decanoyl-KKKK-NH2),>2000 µg/mL,2000 µg/mL,>2000 µg/mL,>2000 µg/mL,2000 µg/mL,>2000 µg/mL,,>2000 µg/mL,128 µg/mL,128 µg/mL,"MIC Pseudomonas aeruginosa [7, 16]: >2000 µg/mL; MBC Pseudomonas aeruginosa [7, 17]: >2000 µg/mL; MIC Candida albicans ([9]; ATCC 10231, TFA salt, Sabouraud Dextrose broth, 10^3 cfu/mL, 48 h 25°C, triplicate): >2000 µg/mL; MFC Candida albicans ([9]; ATCC 10231, TFA salt, subculture on Sabouraud 2% Glucose Agar, 48 h 25°C, triplicate): >2000 µg/mL"
